Source: US20260355168A1, “COMPOSITIONS AND METHODS FOR TREATING AND DETECTING CANCER” (CASE WESTERN RESERVE UNIVERSITY, priority 2022, published 2026)
“Also recorded” adds a separate entry of the source.

Experiments:
Format in all cases: cell-based, human
[1] = tested on: LN229 cells; experiment: LN229 glioma sphere formation and growth assay; settings: for Effect on LN229 sphere formation: day 1; for Effect on LN229 sphere formation / Effect on LN229 sphere growth: in words
Description: FIGS. 5(A-E) illustrate a histogram and images showing the results of the LN229 sphere formation and growth assays. Selected inhibitors, activators, and control compounds identified in LN229 and/or U87 scratch wound closure assays were retested at 100 μM in a secondary assay for glioma cell (LN229) sphere formation and growth. A. Histogram showing the effects of the indicated compounds on sphere formation. On day 1, sphere footprint areas were determined and normalized to the average footprint area of the unblinded vehicle-treated controls. On day 1, a larger footprint area indicates inhibition of aggregation. B. Histogram showing the effects of the indicated compounds on sphere growth. On day 7, the changes in sphere footprint areas were calculated and normalized to the average size change of the unblinded vehicle-treated controls. On day 7, a smaller value indicates reduced growth. […] Data is presented as percentages±s.e.m. of 2-4 replicates. Representative images of samples treated with DMSO (C) and two priority inhibitors (D and E) are shown. Relative day 1 footprint areas and day 7 growth measurements are indicated for each example.
FIGS. 15(A-D) illustrate a histogram and images of titration of selected compounds on LN229 sphere formation and growth. LN229 cells were plated onto non-adherent surfaces and treated with the indicated compounds at 100, 50, and 25 μM. A. On day 1, sphere footprint areas were determined and normalized to the average footprint area of the unblinded vehicle-treated controls. On day 1, a larger foot-print area indicates inhibition of aggregation. B. On day 7, the changes in sphere footprint areas were calculated and normalized to the average size change of the unblinded vehicle-treated controls. On day 7, a smaller value indicates reduced growth. […] Data is presented as percentages±s.e.m. The initial test at 100 μM and the follow-up at that dose with titration is shown. Each bar is the average of 2 replicates. Representative day 1 (C) and day 7 (D) images of samples treated with two priority inhibitors are shown. Relative day 1 sphere footprint areas and day 7 growth for each example are indicated.
(§1) Cells were seeded at a density of 7500 cells per well into the internal wells of 96-well plates coated with 0.75% (wt/vol) PVA as previously described. Compounds were added (2×replicates per treatment) at the indicated final concentrations, and control wells were treated with matching concentrations of DMSO. The external wells of the plates were filled with PBS to buffer against edge effects, and the cells were incubated at 37 °C and 5% CO2 for 7 days. A Leica CTR6500 microscope fitted with an automated stage was used to capture brightfield images on day 1 and day 7, and sphere footprint areas were measured using Image J (v1.52a http://imagej.nih.gov/ij) as previously described. To quantify the effects of the compounds on day 1, the footprint areas of the treated wells were normalized to the average area of the matched DMSO control wells. To quantify the effects of the compounds on sphere growth, the change in the sphere footprint areas was calculated ([…]) and then normalized to the average size change of the matched DMSO samples. All values are presented as average percentages±s.e.m.
We tested the effects of twenty-four compounds (11 flagged as inhibitory, 4 as stimulatory, and nine as inert in the initial scratch-wound screen, FIG. 2) on the ability of LN229 cells to mediate cell-cell adhesion and grow in 3D culture on non-adherent surfaces. To quantify sphere formation (FIG. 5A), the footprint areas of aggregates were measured on day 1 and normalized to that of the DMSO control. At this time point, a larger footprint size (>120%) indicates inhibition, i.e., the failure of cells to form a compact aggregate. To quantify sphere growth (FIG. 5B), we calculated the percent changes in sphere footprint areas between day 1 and day 7 and normalized them to that of the DMSO controls.

[2] = tested on: Gli36 cells; experiment: Gli36 scratch wound healing assay; settings: 100 μM; for Effect on Gli36 migration (scratch wound closure): endpoint 8 h, in words
Description: FIGS. 4(A-D) illustrate a histogram and images showing the results of the Gli36 scratch wound assays. Selected inhibitors, activators, and control compounds identified in LN229 and/or U87 scratch wound closure assays were retested at 100 μM for effects on Gli36 migration. A. Histogram showing the normalized migration distance for each treated sample. Data is presented as average % movement±s.e.m, and compound bar codes are shown on the x-axis. The majority of compounds were screened with an n of 2-4. Representative endpoint images of samples treated with DMSO (B) and two priority inhibitors (C and D) are shown. The relative migration distances for each example are shown.
(§2) Cells were seeded at a density of 2.7×10^4 cells per well into the internal wells of Incuyte1 Imagelock 96-well plates (Essen BioScience Inc., Ann Arbor, MI) and cultured overnight to form monolayers. Monolayers were wounded with an IncuCyte1 96-well Woundmaker Tool per the manufacturer's instructions. The outer wells were filled with PBS to buffer edge effects, and then the wounded monolayers were cultured in 100 μl of fresh media with compounds or DMSO (2×replicates at 100 μM or 1%, respectively) at 37 °C and 5% CO2. Images were captured every 4 hrs. using an Incucyte live cell imaging system equipped with the Scratch Wound Module. Scratch wound widths were calculated, per the manufacturer's instructions, at TO and at endpoint (typically T12 for LN229 and U87 cells and T8 for Gli36), which was taken as the last timepoint before wound closure. The cell migration distance was calculated from scratch widths [(T0Width−TendpointWidth)/2] and normalized to the average distance migrated by the DMSO controls. Values are presented as average percentages±standard errors of the means (s.e.m.). The majority of compounds were screened with an n of two, but the n for priority hits ranges from 2-6.
All inhibitors identified in the primary screens, a selection of U87-specific activators, and some apparently inert control compounds were rescreened in scratch wound assays using an additional glioma cell line (Gli36) (FIG. 4A).

[3] = tested on: glioma cells; experiment: Glioma cell assays combined (scratch and sphere, several cell lines); settings: 100 μM; for Effect on glioma cells, overall: multiple assays and cell lines; for Effect on glioma cell migration: scratch assays
Description: FIG. 2 illustrates a schematic of a functional screening approach. Seventy-four PTPμ wedge-targeted compounds and 2 blinded DMSO samples were received from Atomwise and screened at 100 μM in scratch wound healing assays using two glioma cell lines (LN229 and U87). Selected active and control compounds were taken into secondary assays (Gli36 scratch and LN229 and Gli36 sphere formation and growth assays). Inhibitors selected as being active in primary and secondary screens were tested for effects on the survival of LN229 and Sf9 cells, and selected glioma-cell inhibitors and activators were screened for effects on Sf9-PTPμ aggregation, a highly specific test for PTPμ function.
as §2, §1

| SMILES | Effect on LN229 sphere formation ([1]; 50 μM) | Effect on LN229 sphere growth ([1]; 50 μM, day 7) | Effect on LN229 sphere formation ([1]; 100 μM) | minimal effective concentration ([1]; Homo sapiens, LN-229, titration 100, 50, 25 μM, read-out: Lowest dose effective at inhibiting LN229 sphere growth) [µM] | Effect on Gli36 cell morphology in scratch assay [2] | Effect on Gli36 migration (scratch wound closure) [2] | Effect on glioma cells, overall [3] | Effect on glioma cell migration [3] | Effect on LN229 sphere growth ([1]; 100 μM, day 7) | sphere growth relative to control at 100 µM ([1]; Homo sapiens, LN-229, 168 h, read-out: LN229 sphere growth relative to control (threshold for inhibition), heading: LN229 sphere growth relative to control, 100 μM, day 7) [%] |
| --- | --- | --- | --- | --- | --- | --- | --- | --- | --- | --- |
| COc1cc(C)ccc1OCC(=O)Nc1nc(-c2c[nH]c(C(N)=O)c2)cs1 [Compound 247678835] | condensation was slowed | grew poorly in culture | failed to compact and formed a mat of cells at the bottom of the well; also recorded: dramatically disrupted sphere formation at 100 μM | 50 | reduced the appearance of processes and cell chains at the scratch edge | strong priority inhibitor | highly penetrant inhibitors; also recorded: able to inhibit glioma cells | able to inhibit glioma cell migration | – | – |
| CCN(C(=O)CN1C(=O)NC(C)(CCC(C)C)C1=O)c1cccc2ccccc12 (stereo not shown) [Compound 247677616] | – | – | completely blocked sphere formation | – | dramatic effect on Gli36 cell morphology | – | highly penetrant inhibitors in glioma cell assays | – | – | – |
| O=C(NCc1nc(-c2ccncc2)no1)c1ccc(Cl)c(S(=O)(=O)NCc2ccccc2)c1 [Compound 247678791] | slowed aggregation at 100 and 50 μM | – | aggregated more slowly than controls; also recorded: slowed aggregation at 100 and 50 μM | – | did not dramatically affect Gli36 cell morphology | moderate inhibitor | highly penetrant inhibitors; also recorded: able to inhibit glioma cells | able to inhibit glioma cell migration | grew poorly in 3D culture | < 60 |
